Experimental data reported in BindingDB's records for doi:10.1021/jm970110p (Universit&#233, 1998).

Molecular target: Reverse transcriptase/RNaseH (Human immunodeficiency virus 1, UniProt Q72547)
Assay: Inhibitory concentration against HIV-1 reverse transcriptase

Structure (SMILES)	EC50 [nM]
CCc1c(Cc2ccccc2)[n]([Au])c(=O)[nH]c1=O [6-Benzyl-5-ethyl-1-aurus-1H-pyrimidine-2,4-dione]	210
CC(C)c1c(Cc2ccccc2)[n]([Au])c(=O)[nH]c1=O [6-Benzyl-5-isopropyl-1-aurus-1H-pyrimidine-2,4-dione]	42
